The source of these data is PubChem BioAssay AID1259411 (Chemical Carcinogenesis Research Information System (CCRIS), 2018).

The subject of this data set is rodent carcinogenicity bioassays, tumor incidence. Nature of the data set: CCRIS carcinogenicity studies. Summed up:
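Archive of carcinogenicity, mutagenicity, tumor promotion and tumor inhibition results drawn from journals, NCI reports and other sources, expert-reviewed; covers 1985-2011 and is no longer updated.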

Calls of active or inactive are those of the source. The rule behind the calls is not given here.

As for `ClC=C(Cl)Cl`, the carcinogen call runs as follows: (Species: MOUSE, Strain/Sex: B6C3F1/FEMALE, Route: GAVAGE, Dose: 0, 869, 1739 MG/KG/D, TWA, Dose: 0, 869, 1739 MG/KG/D, TWA, Tumor Site: Type of Lesion: LIVER: HEPATOCELLULAR CARCINOMA) “active; positive”; (Species: MOUSE, Strain/Sex: B6C3F1/FEMALE, Route: GAVAGE, Dose: 0, 1000 MG/KG IN CORN OIL 5 D/WK FOR 103 WK (STUDY DURATION: 107 WK), Tumor Site: Type of Lesion: LIVER: ADENOMA, CARCINOMA) “active; positive”; (Species: MOUSE, Strain/Sex: B6C3F1/FEMALE, Route: INHALATION, Dose: 0, 100, 300, 600 PPM 7 HR/D 5 D/WK FOR 78 WK (STUDY DURATION: LIFETIME), Dose: 0, 100, 300, 600 PPM 7 HR/D 5 D/WK FOR 78 WK (STUDY DURATION: LIFETIME), Tumor Site: Type of Lesion: LUNG: TUMOR) “active; positive”; (Species: MOUSE, Strain/Sex: B6C3F1/MALE, Route: GAVAGE, Dose: 0, 1000 MG/KG IN CORN OIL 5 D/WK FOR 103 WK (STUDY DURATION: 107 WK), Tumor Site: Type of Lesion: LIVER: ADENOMA, CARCINOMA) “active; positive”; (Species: MOUSE, Strain/Sex: B6C3F1/MALE, Route: GAVAGE, Dose: 0, 1169, 2339 MG/KG/D, TWA, Dose: 0, 1169, 2339 MG/KG/D, TWA, Tumor Site: Type of Lesion: LIVER: HEPATOCELLULAR CARCINOMA) “active; positive”; (Species: MOUSE, Strain/Sex: B6C3F1/MALE, Route: INHALATION, Dose: 0, 100, 300, 600 PPM 7 HR/D 5 D/WK FOR 78 WK (STUDY DURATION: LIFETIME), Dose: 0, 100, 300, 600 PPM 7 HR/D 5 D/WK FOR 78 WK (STUDY DURATION: LIFETIME)) “inactive; negative”. Besides, the carcinogen call is, setting by setting: (Species: MOUSE, Strain/Sex: ICR/MALE, FEMALE, Route: GAVAGE, Dose: 0, 10 MG/KG IN CORN OIL 5 D/WK FOR 18 MO (DOSES REDUCED BY FACTOR OF 2 FROM 40TH WEEK)(STUDY DURATION: 24 MO)) “inactive; negative”; (Species: MOUSE, Strain/Sex: SWISS/FEMALE, Route: INHALATION, Dose: 0, 100, 300, 600 PPM 7 HR/D 5 D/WK FOR 78 WK (STUDY DURATION: LIFETIME), Dose: 0, 100, 300, 600 PPM 7 HR/D 5 D/WK FOR 78 WK (STUDY DURATION: LIFETIME)) “inactive; negative”; (Species: MOUSE, Strain/Sex: SWISS/MALE, Route: INHALATION, Dose: 0, 100, 300, 600 PPM 7 HR/D 5 D/WK FOR 78 WK (STUDY DURATION: LIFETIME), Dose: 0, 100, 300, 600 PPM 7 HR/D 5 D/WK FOR 78 WK (STUDY DURATION: LIFETIME), Tumor Site: Type of Lesion: LUNG: TUMOR, LIVER: HEPATOMA) “active; positive”; (Species: RAT, Strain/Sex: F344/FEMALE, Route: GAVAGE, Dose: 0, 500, 1000 MG/KG IN CORN OIL 5 D/WK FOR 103 WK (STUDY DURATION: 107 WK), Dose: 0, 500, 1000 MG/KG IN CORN OIL 5 D/WK FOR 103 WK (STUDY DURATION: 107 WK)) “inactive; negative”; (Species: RAT, Strain/Sex: SPRAGUE-DAWLEY/FEMALE, Route: GAVAGE, Dose: 0, 50, 250 MG/KG BW IN OLIVE OIL 1/D 4-6 D/WK FOR 52 WK (STUDY DURATION: LIFETIME), Dose: 0, 50, 250 MG/KG BW IN OLIVE OIL 1/D 4-6 D/WK FOR 52 WK (STUDY DURATION: LIFETIME), Tumor Site: Type of Lesion: [BRAIN WAS ONLY SITE EVALUATED]) “inactive; negative”; (Species: RAT, Strain/Sex: SPRAGUE-DAWLEY/FEMALE, Route: INHALATION, Dose: 0, 100, 300, 600 PPM 7 HR/D 5 D/WK FOR 104 WK (STUDY DURATION: LIFETIME), Dose: 0, 100, 300, 600 PPM 7 HR/D 5 D/WK FOR 104 WK (STUDY DURATION: LIFETIME)) “inactive; negative”. The carcinogen call was “inactive; negative” (Species: RAT, Strain/Sex: SPRAGUE-DAWLEY/MALE, Route: GAVAGE, Dose: 0, 50, 250 MG/KG BW IN OLIVE OIL 1/D 4-6 D/WK FOR 52 WK (STUDY DURATION: LIFETIME), Dose: 0, 50, 250 MG/KG BW IN OLIVE OIL 1/D 4-6 D/WK FOR 52 WK (STUDY DURATION: LIFETIME), Tumor Site: Type of Lesion: [BRAIN WAS ONLY SITE EVALUATED]) and “active; positive” (Species: RAT, Strain/Sex: SPRAGUE-DAWLEY/MALE, Route: INHALATION, Dose: 0, 100, 300, 600 PPM 7 HR/D 5 D/WK FOR 104 WK (STUDY DURATION: LIFETIME), Dose: 0, 100, 300, 600 PPM 7 HR/D 5 D/WK FOR 104 WK (STUDY DURATION: LIFETIME), Tumor Site: Type of Lesion: TESTIS: LEYDIG CELL TUMOR).

Regarding `COC(=O)[C@H]1[C@H]2C[C@@H]3c4[nH]c5cc(OC)ccc5c4CCN3C[C@H]2C[C@@H](OC(=O)c2cc(OC)c(OC)c(OC)c2)[C@@H]1OC`, the carcinogen call is “active; positive” (Species: MOUSE, Strain/Sex: B6C3F1/FEMALE, Route: ORAL, Dose: 0, 5, 10 PPM IN DIET FOR 103 WK (STUDY DURATION: 105 WK), Dose: 0, 5, 10 PPM IN DIET FOR 103 WK (STUDY DURATION: 105 WK), Tumor Site: Type of Lesion: MAMMARY GLAND: MALIGNANT TUMOR); “active; positive” (Species: MOUSE, Strain/Sex: B6C3F1/MALE, Route: ORAL, Dose: 0, 5, 10 PPM IN DIET FOR 103 WK (STUDY DURATION: 105 WK), Dose: 0, 5, 10 PPM IN DIET FOR 103 WK (STUDY DURATION: 105 WK), Tumor Site: Type of Lesion: SEMINAL VESICLES: CARCINOMA); “inactive; negative” (Species: RAT, Strain/Sex: F344/FEMALE, Route: ORAL, Dose: 0, 5, 10 PPM IN DIET FOR 103 WK (STUDY DURATION: 105 WK), Dose: 0, 5, 10 PPM IN DIET FOR 103 WK (STUDY DURATION: 105 WK)); “active; positive” (Species: RAT, Strain/Sex: F344/MALE, Route: ORAL, Dose: 0, 5, 10 PPM IN DIET FOR 103 WK (STUDY DURATION: 105 WK), Dose: 0, 5, 10 PPM IN DIET FOR 103 WK (STUDY DURATION: 105 WK), Tumor Site: Type of Lesion: ADRENAL GLAND: MALIGNANT PHEOCHROMOCYTOMA OR PHEOCHROMOCYTOMA).

On to `COc1cc2c(c3oc4cccc(O)c4c(=O)c13)[C@@H]1C=CO[C@@H]1O2`, for which the carcinogen call by setting is: (Species: MOUSE, Route: ORAL, Tumor Site: Type of Lesion: LUNG) “active; positive”; (Species: MOUSE, Strain/Sex: DBF1/FEMALE, Route: ORAL, Dose: 0, 30, 120 PPM IN DIET FOR 55 OR 51 WK, STUDY DURATION: 73 WK, Dose: 0, 30, 120 PPM IN DIET FOR 55 OR 51 WK, STUDY DURATION: 73 WK, Tumor Site: Type of Lesion: LIVER: HEMANGIOENDOTHELIOMA, ANGIOSARCOMA, LUNG: ADENOMA, INTEGUMENTARY SYSTEM (SUBCUTANEOUS TISSUE): ANGIOSARCOMA, Tumor Site: Type of Lesion: LIVER: HEMANGIOENDOTHELIOMA, ANGIOSARCOMA, LUNG: ADENOMA, INTEGUMENTARY SYSTEM (SUBCUTANEOUS TISSUE): ANGIOSARCOMA) “active; positive”; (Species: RAT, Route: DERMAL, Tumor Site: Type of Lesion: INTEGUMENTARY SYSTEM (SKIN)) “active; positive”; (Species: RAT, Route: ORAL, Tumor Site: Type of Lesion: LIVER) “active; positive”; (Species: RAT, Route: SUBCUTANEOUS, Tumor Site: Type of Lesion: INJECTION SITE) “active; positive”.

On to `O=[N+]([O-])c1ccc(N=Nc2c(O)ccc3ccccc23)c(Cl)c1`, for which the carcinogen call was “inactive; negative” (Species: MOUSE, Strain/Sex: ICR/FEMALE, Route: DERMAL, Dose: 0, 1 MG IN 0.1 ML DISTILLED WATER 2/WK FOR A MEAN TOTAL DOSE OF 117.1 MG (STUDY DURATION: 18 MO)) and “inactive; negative” (Species: MOUSE, Strain/Sex: ICR/MALE, Route: DERMAL, Dose: 0, 1 MG IN 0.1 ML DISTILLED WATER 2/WK FOR A MEAN TOTAL DOSE OF 117.1 MG (STUDY DURATION: 18 MO)).

Turning to `COc1cc(/C=C/C(=O)O[C@H]2CC[C@]34C[C@]35CC[C@]3(C)[C@@H]([C@H](C)CCC=C(C)C)CC[C@@]3(C)[C@@H]5CC[C@H]4C2(C)C)ccc1O`, the carcinogen call by setting is: (Species: MOUSE, Strain/Sex: B6C3F1/FEMALE, Route: ORAL, Dose: 0, 200, 600, 2000 MG/KG/BW A DAY IN DIET FOR 78 WK (STUDY DURATION: 79 WK), Dose: 0, 200, 600, 2000 MG/KG/BW A DAY IN DIET FOR 78 WK (STUDY DURATION: 79 WK)) “inactive; negative”; (Species: MOUSE, Strain/Sex: B6C3F1/MALE, Route: ORAL, Dose: 0, 200, 600, 2000 MG/KG/BW A DAY IN DIET FOR 78 WK (STUDY DURATION: 79 WK), Dose: 0, 200, 600, 2000 MG/KG/BW A DAY IN DIET FOR 78 WK (STUDY DURATION: 79 WK)) “inactive; negative”; (Species: RAT, Strain/Sex: F344/FEMALE, Route: ORAL, Dose: 0, 200, 600, 2000 MG/KG/BW/D IN DIET FOR 2 YR (STUDY DURATION: 105 WK), Dose: 0, 200, 600, 2000 MG/KG/BW/D IN DIET FOR 2 YR (STUDY DURATION: 105 WK)) “inactive; negative”; (Species: RAT, Strain/Sex: F344/MALE, Route: ORAL, Dose: 0, 200, 600, 2000 MG/KG/BW/D IN DIET FOR 2 YR (STUDY DURATION: 105 WK), Dose: 0, 200, 600, 2000 MG/KG/BW/D IN DIET FOR 2 YR (STUDY DURATION: 105 WK)) “inactive; negative”.
